From patent publication US20260160663A1, “OBLIQUE LINE SCANNER SYSTEMS AND METHODS FOR HIGH THROUGHPUT SINGLE MOLECULE TRACKING IN LIVING CELLS” (EIKON THERAPEUTICS, INC., priority 2022, published 2026)

System: Halo-PCNA U2OS cells
Assay: Cell cycle block, phases assigned by PCNA-based machine learning model
Details: 2 mM Thymidine (S-phase block) or RO-3306 (G2-M block) per FIG. 20B legend
Method: Time-lapse microscopy was conducted on Halo-PCNA labeled with 50 nM JFX650, to achieve near-saturating labeling, for 12 hours at 12 frames per hour (FIG. 21A). A machine learning model was then trained using both manually assigned cell stages and time-based progression resulting in both a G1, early S, mid S, late S, G2 and mitosis classifier as well as a regression prediction across the continuum of the cell cycle (FIG. 21B). The predicted cell cycle classification performed well as compared to manual annotation (FIG. 21C). Clear progression of individual cells through the cell cycle was observed when regression prediction was plotted across the time series (FIG. 21D). […] When cells in each cell phase were analyzed separately, it became apparent that the slow-moving population of PCNA was exclusively found in cell predicted to be in S-phase and that there was a marked decrease in the fast-moving population (FIG. 20E). Mean diffusion coefficient of PCNA was then measured for 4,081 individual cells to characterize heterogeneity across the cell population, which is described in large part by cell cycle (FIG. 20F).
Cell cycle as provided above can be automatically determined using an image (e.g., an image of JF549-labeled PCNA). […]

SMILES	fraction of cells assigned to the respective cell phase
O=C1NC(=NCc2cccs2)S/C1=C\c1ccc2ncccc2c1 [RO-3306]	expected enrichment
Cc1cn([C@H]2C[C@H](O)[C@@H](CO)O2)c(=O)[nH]c1=O [thymidine]	expected enrichment
